Source: US9783552B2, “Soluble guanylate cyclase activators” (MERCK SHARP & DOHME CORP., priority 2013, dated 2017)

Molecular target: T1, sGC α1/β1 heterodimer (Homo sapiens, UniProt Q02108+Q02153)
T1 construct: expressed in transfected cells
T1 sequence (Q02108 1-690): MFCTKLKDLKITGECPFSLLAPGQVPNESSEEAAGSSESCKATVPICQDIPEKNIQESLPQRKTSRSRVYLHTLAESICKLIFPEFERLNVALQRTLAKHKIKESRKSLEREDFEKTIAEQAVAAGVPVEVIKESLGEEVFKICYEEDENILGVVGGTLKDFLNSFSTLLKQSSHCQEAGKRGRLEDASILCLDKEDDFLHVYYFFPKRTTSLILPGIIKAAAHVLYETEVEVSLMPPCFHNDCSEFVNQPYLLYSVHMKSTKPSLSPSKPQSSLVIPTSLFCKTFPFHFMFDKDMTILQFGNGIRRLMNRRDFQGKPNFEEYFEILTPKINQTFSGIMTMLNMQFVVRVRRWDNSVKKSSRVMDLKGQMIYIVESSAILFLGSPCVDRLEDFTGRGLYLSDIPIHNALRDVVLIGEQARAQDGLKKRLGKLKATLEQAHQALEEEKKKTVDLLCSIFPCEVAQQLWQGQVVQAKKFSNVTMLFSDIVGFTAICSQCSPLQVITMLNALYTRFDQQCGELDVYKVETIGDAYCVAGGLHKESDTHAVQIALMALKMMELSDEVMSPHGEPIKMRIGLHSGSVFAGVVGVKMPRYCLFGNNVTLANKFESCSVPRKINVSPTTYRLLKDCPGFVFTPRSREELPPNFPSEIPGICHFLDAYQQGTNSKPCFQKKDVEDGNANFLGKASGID
T1 sequence (Q02153 1-619): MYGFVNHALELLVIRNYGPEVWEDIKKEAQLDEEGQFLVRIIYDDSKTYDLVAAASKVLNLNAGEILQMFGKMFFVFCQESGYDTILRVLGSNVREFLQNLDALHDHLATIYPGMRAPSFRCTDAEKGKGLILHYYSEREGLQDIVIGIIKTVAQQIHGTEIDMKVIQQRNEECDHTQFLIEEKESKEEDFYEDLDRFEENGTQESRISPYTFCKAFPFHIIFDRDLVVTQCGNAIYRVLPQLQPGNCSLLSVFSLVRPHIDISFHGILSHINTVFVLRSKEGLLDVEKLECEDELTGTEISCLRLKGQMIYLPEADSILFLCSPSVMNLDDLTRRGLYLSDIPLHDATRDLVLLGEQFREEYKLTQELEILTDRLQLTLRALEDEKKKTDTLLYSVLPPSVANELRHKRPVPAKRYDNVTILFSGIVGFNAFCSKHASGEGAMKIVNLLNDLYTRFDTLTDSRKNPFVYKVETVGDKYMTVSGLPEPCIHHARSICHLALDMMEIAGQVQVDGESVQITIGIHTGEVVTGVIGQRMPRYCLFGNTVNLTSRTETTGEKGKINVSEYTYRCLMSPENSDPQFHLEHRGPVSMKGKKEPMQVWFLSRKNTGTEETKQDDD
Experiment: Cell-Based sGC Functional Assay (CASA Assay)
Conditions: CHO-K1/sGC cells; for EC50: intracellular cGMP by HTRF, 1 hr at 37° C., IP from 4P fit, presence or absence of 1 μM DETA-NO not given; for Emax: cGMP as percentage of maximum cGMP production of Compound A (=100% activation), read-out: % ACT (percent activation)
Description: Biological Assays: Cell-Based sGC Functional Assay (CASA Assay)
sGC is a heme-containing enzyme that converts GTP to secondary messenger cGMP. Increases in cGMP levels affect several physiological processes including vasorelaxation through multiple downstream pathways. […] Heme-dependent activators (HDAs) preferentially activate sGC containing a ferrous heme group. To determine the effect of sGC activators on enzyme activity, the CASA assay was developed to monitor the generation of cGMP in a cell line that stably expresses the heterodimeric sGC protein.
A CHO-K1 cell line stably expressing the sGC α1/β1 heterodimer was generated using a standard transfection protocol. CHO-K1 cells were transfected with plasmids pIREShyghsGCα1 and pIRESneo-hsGCβ1 simultaneously using FUGENE reagent. Clones that stably express both subunits were selected with hygromycin and neomycin for ˜2 weeks. Clone #7 was chosen for the assay and was designated CHO-K1/sGC. CHO-K1/sGC cells were maintained in F-K12 medium containing 10% heat-inactivated Fetal Bovine Serum (FBS), 100 μg/mL penicillin/streptomycin, 0.5 mg/mL hygromycin and 0.25 mg/mL G418. The cells were then cryopreserved in LN2. On the day of the assay, cells were thawed and resuspended in EBSS Assay Buffer (EAB, Sigma, E3024) supplemented with 5 mM MgCl2, 10 mM HEPES (4-(2-hydroxyethyl)piperazine-1-ethanesulfonic acid) and 0.05% BSA (bovine serum albumin) and cell density was then adjusted to 4×10^5/mL with EAB. IBMX (3-isobutyl-1-methylxanthin, 0.5 mM) was added to inhibit degradation of cGMP. Compounds were diluted from DMSO stock solutions and added to the assay at a final DMSO concentration of 2.5%. Cells were incubated with compounds in the presence and absence of 1 μM of Diethylenetriamine/nitric oxide adduct (DETA-NO; Sigma, 17018) for 1 hr at 37° C. At the end of the incubation period, the reaction was terminated and the cells were lysed with the detection reagents from Cisbio Kits. The level of intracellular cGMP was determined using an HTRF-based assay kit (CisBio, 62GM2PEC), which detects the displacement of a fluorescence labeled cGMP from its specific antibody. The cGMP produced by test compounds was directly compared to the maximum cGMP production (this value was set to equal 100% activation) of the published sGC-HDA Compound A:
[drawing 123] (Example 1 in WO 2010/065275, published Jun. 10, 2010). The test compounds' activity was then expressed as a percentage of Compound A, the standard in every experiment. This percent activation was calculated either in the presence or absence of DETA-NO which was then plotted. IP and maximum fold induction was derived using ADA analysis software for 4P fit.

EC50 [nM] | Emax [%] | Compound
299 | 94 | [2H]C([2H])([2H])n1nc(C2CC2)c2c(-c3nc(N)c4c(n3)NC(=O)C4(C)c3ccc(F)cc3)nc(CCC(F)(F)C(F)(F)F)nc21 (stereo not shown) [Example 59, 4-Amino-2-(3-cyclopropyl-6-(3,3,4,4,4-pentafluorobutyl)-1-trideuteriomethyl-1H-pyrazolo[3,4-d]pyrimidin-4-yl)-5-(4-fluorophenyl)-5-methyl-5H-pyrrolo[2,3-d]pyrimidin-6(7H)-one]
15 | 112 | COc1ccc(C2(C)C(=O)Nc3nc(-c4nc(CCC(F)(F)C(F)(F)F)nc5c4cnn5C)nc(N)c32)cc1F (single isomer, unassigned) [Example 16, 4-Amino-5-(3-fluoro-4-methoxyphenyl)-5-methyl-2-(1-methyl-6-(3,3,4,4,4-pentafluorobutyl)-1H-pyrazolo[3,4-d]pyrimidin-4-yl)-5H-pyrrolo[2,3-d]pyrimidin-6(7H)-one]
53 | 119 | CCn1ncc2c(-c3nc(N)c4c(n3)NC(=O)C4(C)c3ccc(F)cc3)nc(CCC(F)(F)C(F)(F)F)nc21 (single isomer, unassigned) [Example 19, 4-Amino-2-(1-ethyl-6-(3,3,4,4,4-pentafluorobutyl)-1H-pyrazolo[3,4-d]pyrimidin-4-yl)-5-(4-fluorophenyl)-5-methyl-5H-pyrrolo[2,3-d]pyrimidin-6(7H)-one]
664 | 93 | [2H]C([2H])([2H])n1ncc2c(-c3nc(O)c4c(n3)NC(=O)C4(C)c3ccc(F)cc3)nc(CCC(F)(F)C(F)(F)F)nc21 (stereo not shown) [Example 48, 5-(4-Fluorophenyl)-4-hydroxy-5-methyl-2-(6-(3,3,4,4,4-pentafluorobutyl)-1-trideuteriomethyl-1H-pyrazolo[3,4-d]pyrimidin-4-yl)-5H-pyrrolo[2,3-d]pyrimidin-6(7H)-one]
209 | 110 | [2H]C([2H])([2H])n1ncc2c(-c3nc(N)c4c(n3)NC(=O)C4(C)c3ccc(O)cc3)nc(CCC(F)(F)C(F)(F)F)nc21 (single isomer, unassigned) [Example 43, 4-Amino-5-(4-hydroxyphenyl)-5-methyl-2-(6-(3,3,4,4,4-pentafluorobutyl)-1-trideuteriomethyl-1H-pyrazolo[3,4-d]pyrimidin-4-yl)-5H-pyrrolo[2,3-d]pyrimidin-6(7H)-one]

Continued, compound first:

Compound | EC50 [nM] | Emax [%]
Cn1ncc2c(-c3nc(N)c4c(n3)NC(=O)C4(C)NCC3CC3)nc(CCC(F)(F)C(F)(F)F)nc21 (stereo not shown) [Example 54, 4-Amino-5-((cyclopropylmethyl)amino)-5-methyl-2-(1-methyl-6-(3,3,4,4,4-pentafluorobutyl)-1H-pyrazolo[3,4-d]pyrimidin-4-yl)-5H-pyrrolo[2,3-d]pyrimidin-6(7H)-one] | 87 | 118
COc1ccc(C2(C)C(=O)Nc3nc(-c4nc(CCCC(F)(F)F)nc5c4cnn5C)nc(N)c32)cc1F (single isomer, unassigned) [Example 15, 4-Amino-5-(3-fluoro-4-methoxyphenyl)-5-methyl-2-(1-methyl-6-(4,4,4-trifluorobutyl)-1H-pyrazolo[3,4-d]pyrimidin-4-yl)-5H-pyrrolo[2,3-d]pyrimidin-6(7H)-one] | 52 | 113
[2H]C([2H])([2H])n1ncc2c(-c3nc(N)c4c(n3)NC(=O)C4(C)C(=O)Nc3cnn(C)c3)nc(CCC(F)(F)C(F)(F)F)nc21 (single isomer, unassigned) [Example 42, 4-amino-5-methyl-N-(1-methyl-1H-pyrazol-4-yl)-2-(6-(3,3,4,4,4-pentafluorobutyl)-1-trideuteriomethyl-1H-pyrazolo[3,4-d]pyrimidin-4-yl)-6-oxo-6,7-dihydro-5H-pyrrolo[2,3-d]pyrimidine-5-carboxamide] | 111 | 134
Cn1ncc2c(-c3nc(N)c4c(n3)NC(=O)C4(C)C3CCCCC3)nc(CCC(F)(F)C(F)(F)F)nc21 (single isomer, unassigned) [Example 18, 4-Amino-5-cyclohexyl-5-methyl-2-(1-methyl-6-(3,3,4,4,4-pentafluorobutyl)-1H-pyrazolo[3,4-d]pyrimidin-4-yl)-5H-pyrrolo[2,3-d]pyrimidin-6(7H)-one] | 171 | 122
COC1(C)C(=O)Nc2nc(-c3nc(CCC(F)(F)C(F)(F)F)nc4c3cnn4C)nc(N)c21 (single isomer, unassigned) [Example 56, 4-Amino-5-methoxy-5-methyl-2-(1-methyl-6-(3,3,4,4,4-pentafluorobutyl)-1H-pyrazolo[3,4-d]pyrimidin-4-yl)-5H-pyrrolo[2,3-d]pyrimidin-6(7H)-one] | 44 | 104
Cn1nc(Cl)c2c(-c3nc(N)c4c(n3)NC(=O)C4(C)c3ccc(F)cc3)nc(CCC(F)(F)C(F)(F)F)nc21 (single isomer, unassigned) [Example 58, 4-Amino-2-(3-chloro-1-methyl-6-(3,3,4,4,4-pentafluorobutyl)-1H-pyrazolo[3,4-d]pyrimidin-4-yl)-5-(4-fluorophenyl)-5-methyl-5H-pyrrolo[2,3-d]pyrimidin-6(7H)-one] | 632 | 70
CCOC(=O)C1(C2CC2)C(=O)Nc2nc(-c3nc(CCCC(F)(F)F)nc4c3cnn4C)nc(N)c21 (single isomer, unassigned) [Example 27, Ethyl 4-amino-5-cyclopropyl-2-(1-methyl-6-(4,4,4-trifluorobutyl)-1H-pyrazolo[3,4-d]pyrimidin-4-yl)-6-oxo-6,7-dihydro-5H-pyrrolo[2,3-d]pyrimidine-5-carboxylate] | 602 | 98
CCn1ncc2c(-c3nc(N)c4c(n3)NC(=O)C4(C)c3ccc(F)cc3)nc(CCCC(F)(F)F)nc21 (single isomer, unassigned) [Example 20, 4-Amino-2-(1-ethyl-6-(4,4,4-trifluorobutyl)-1H-pyrazolo[3,4-d]pyrimidin-4-yl)-5-(4-fluorophenyl)-5-methyl-5H-pyrrolo[2,3-d]pyrimidin-6(7H)-one] | 143 | 123
Cn1ccc2c(-c3nc(N)c4c(n3)NC(=O)C4(C)C)nc(CCC(F)(F)C(F)(F)F)nc21 [Example 63, 4-Amino-5,5,7′-trimethyl-2′-(3,3,4,4,4-pentafluorobutyl)-5H,7′H-[2,4′-bipyrrolo[2,3-d]pyrimidin]-6(7H)-one] | 502 | 76
